Here are results for three molecules from ChEMBL document CHEMBL1201862, “PubChem BioAssay data set” (2004).

Common to all, as to format: functional
Test [1] addresses Tyrosine-protein phosphatase non-receptor type 11 (Homo sapiens, UniProt Q06124). Kind of test: SHP2 phosphatase inhibition, dose response, selectivity assay for STEP inhibitor project, biochemical (AID 602367). The following applies: read-out: IC50_Mean.
In test [2] the target is Dual specificity protein phosphatase 3 (Homo sapiens, UniProt P51452). Kind of test: VHR phosphatase inhibition, dose response, selectivity assay for STEP inhibitor project, biochemical (AID 602374). The note with it: read-out: IC50_Mean.
Dual specificity protein phosphatase 3, sequence (P51452 whole entry): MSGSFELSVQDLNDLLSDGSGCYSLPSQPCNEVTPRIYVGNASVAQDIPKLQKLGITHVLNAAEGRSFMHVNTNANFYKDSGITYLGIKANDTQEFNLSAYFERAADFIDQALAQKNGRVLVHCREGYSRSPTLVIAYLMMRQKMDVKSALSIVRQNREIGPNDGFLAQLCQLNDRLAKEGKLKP
The target in test [3] is Tyrosine-protein phosphatase non-receptor type 5 (Homo sapiens, UniProt P54829). Kind of test: STEP phosphatase inhibitors, confirmation, biochemical, fluorescence intensity, uHTS hits (AID 602372). The note with it: read-out: IC50_Mean.
Tyrosine-protein phosphatase non-receptor type 5, sequence (P54829 whole entry): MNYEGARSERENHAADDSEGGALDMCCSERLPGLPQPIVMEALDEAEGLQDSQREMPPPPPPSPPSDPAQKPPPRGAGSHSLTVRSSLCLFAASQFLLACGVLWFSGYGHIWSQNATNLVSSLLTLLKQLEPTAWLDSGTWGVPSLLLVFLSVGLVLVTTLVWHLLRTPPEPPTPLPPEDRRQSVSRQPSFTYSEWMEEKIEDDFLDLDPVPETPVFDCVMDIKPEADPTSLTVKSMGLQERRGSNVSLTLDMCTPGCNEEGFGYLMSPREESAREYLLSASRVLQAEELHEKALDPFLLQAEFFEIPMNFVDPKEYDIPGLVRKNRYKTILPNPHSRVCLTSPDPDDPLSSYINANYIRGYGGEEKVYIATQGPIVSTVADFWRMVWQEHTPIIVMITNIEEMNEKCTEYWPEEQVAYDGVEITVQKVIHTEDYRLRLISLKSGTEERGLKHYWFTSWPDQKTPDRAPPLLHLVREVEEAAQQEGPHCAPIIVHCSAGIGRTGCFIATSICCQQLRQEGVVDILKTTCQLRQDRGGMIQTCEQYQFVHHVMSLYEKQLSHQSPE
Test [4] addresses T1, Tyrosine-protein phosphatase non-receptor type 22 (Homo sapiens, UniProt Q9Y2R2).
T1 sequence (Q9Y2R2 whole entry): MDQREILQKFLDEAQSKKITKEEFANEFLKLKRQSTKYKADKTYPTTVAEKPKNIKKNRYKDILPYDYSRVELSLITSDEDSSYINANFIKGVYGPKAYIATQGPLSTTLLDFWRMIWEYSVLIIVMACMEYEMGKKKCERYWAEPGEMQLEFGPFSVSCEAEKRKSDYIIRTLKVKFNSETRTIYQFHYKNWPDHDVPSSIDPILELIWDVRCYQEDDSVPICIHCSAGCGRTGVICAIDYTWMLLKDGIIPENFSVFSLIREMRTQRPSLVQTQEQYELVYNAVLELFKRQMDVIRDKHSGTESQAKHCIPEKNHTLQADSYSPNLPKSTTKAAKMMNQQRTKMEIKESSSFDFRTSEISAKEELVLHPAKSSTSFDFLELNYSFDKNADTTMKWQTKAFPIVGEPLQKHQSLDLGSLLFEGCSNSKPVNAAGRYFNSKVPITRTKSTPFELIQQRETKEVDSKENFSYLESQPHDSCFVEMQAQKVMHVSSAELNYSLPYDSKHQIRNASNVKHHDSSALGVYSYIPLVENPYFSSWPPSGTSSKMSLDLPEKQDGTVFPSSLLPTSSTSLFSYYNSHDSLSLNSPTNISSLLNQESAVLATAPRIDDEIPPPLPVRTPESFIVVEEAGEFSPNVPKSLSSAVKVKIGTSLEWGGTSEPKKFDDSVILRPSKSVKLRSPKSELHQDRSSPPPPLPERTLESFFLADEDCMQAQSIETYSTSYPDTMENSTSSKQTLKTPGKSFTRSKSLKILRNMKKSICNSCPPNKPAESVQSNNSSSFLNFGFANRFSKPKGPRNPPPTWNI
Kind of test: PTPN22 phosphatase inhibition, dose response, selectivity assay for STEP inhibitor project, biochemical (AID 624241).

Test [5] deals with Glucose-6-phosphate 1-dehydrogenase (Homo sapiens, UniProt P11413). Kind of test: human G6PD enzyme inhibitors, dose response, selectivity assay for P. falciparum G6PD inhibitor project, biochemical, fluorescence (AID 504792).
Glucose-6-phosphate 1-dehydrogenase, sequence (P11413 whole entry): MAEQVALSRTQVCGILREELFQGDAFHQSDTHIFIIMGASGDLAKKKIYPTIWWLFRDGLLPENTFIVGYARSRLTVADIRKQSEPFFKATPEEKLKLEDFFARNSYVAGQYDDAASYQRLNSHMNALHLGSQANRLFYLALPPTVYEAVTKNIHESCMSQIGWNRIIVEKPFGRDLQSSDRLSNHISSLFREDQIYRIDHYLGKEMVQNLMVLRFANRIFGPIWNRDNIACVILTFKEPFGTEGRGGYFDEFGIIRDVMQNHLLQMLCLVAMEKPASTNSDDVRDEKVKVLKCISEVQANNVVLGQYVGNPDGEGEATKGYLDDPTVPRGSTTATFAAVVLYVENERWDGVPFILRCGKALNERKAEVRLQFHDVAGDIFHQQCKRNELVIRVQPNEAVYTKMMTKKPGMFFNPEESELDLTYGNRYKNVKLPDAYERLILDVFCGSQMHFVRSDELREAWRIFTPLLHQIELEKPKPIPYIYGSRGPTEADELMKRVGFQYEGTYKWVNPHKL
Test [6] deals with T2, Replicative DNA helicase DnaB (Mycobacterium tuberculosis, UniProt P9WMR3).
T2 sequence (P9WMR3 whole entry): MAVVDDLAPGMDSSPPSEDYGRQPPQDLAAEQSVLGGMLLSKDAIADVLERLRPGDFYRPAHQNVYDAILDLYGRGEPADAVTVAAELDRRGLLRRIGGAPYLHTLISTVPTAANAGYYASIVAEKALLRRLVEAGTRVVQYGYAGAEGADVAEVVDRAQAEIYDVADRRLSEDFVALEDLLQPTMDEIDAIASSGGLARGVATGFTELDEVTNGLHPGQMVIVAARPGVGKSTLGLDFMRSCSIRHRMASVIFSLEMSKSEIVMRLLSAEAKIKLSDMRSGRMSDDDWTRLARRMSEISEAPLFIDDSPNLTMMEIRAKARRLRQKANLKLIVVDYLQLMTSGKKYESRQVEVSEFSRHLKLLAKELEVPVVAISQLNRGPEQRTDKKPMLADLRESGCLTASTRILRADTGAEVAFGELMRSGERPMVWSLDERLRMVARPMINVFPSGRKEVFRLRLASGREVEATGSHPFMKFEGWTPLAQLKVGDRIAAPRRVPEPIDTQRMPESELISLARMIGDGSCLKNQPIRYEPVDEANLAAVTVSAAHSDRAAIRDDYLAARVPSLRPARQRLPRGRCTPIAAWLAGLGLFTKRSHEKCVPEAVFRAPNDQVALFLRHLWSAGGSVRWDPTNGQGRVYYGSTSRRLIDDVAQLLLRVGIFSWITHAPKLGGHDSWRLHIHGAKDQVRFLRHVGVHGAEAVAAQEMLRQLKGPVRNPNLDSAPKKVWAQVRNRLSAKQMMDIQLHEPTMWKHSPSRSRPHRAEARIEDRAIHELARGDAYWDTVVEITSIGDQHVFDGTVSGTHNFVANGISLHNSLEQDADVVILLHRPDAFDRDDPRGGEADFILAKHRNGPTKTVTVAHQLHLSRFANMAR
Kind of test: DnaB intein splicing inhibitors, dose response, biochemical, cell-free fluorescence (AID 449749).

Test [7] has as its target T3, Sentrin-specific protease 8 (Homo sapiens, UniProt Q96LD8).
T3 sequence (Q96LD8 whole entry): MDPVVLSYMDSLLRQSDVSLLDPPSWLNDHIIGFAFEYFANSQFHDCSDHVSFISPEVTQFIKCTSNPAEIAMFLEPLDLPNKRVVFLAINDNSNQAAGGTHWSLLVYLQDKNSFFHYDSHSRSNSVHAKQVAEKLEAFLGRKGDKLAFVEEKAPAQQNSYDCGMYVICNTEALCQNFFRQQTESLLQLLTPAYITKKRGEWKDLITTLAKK

The next test deals with T4, Protein RecA (Mycobacterium tuberculosis, UniProt P9WHJ3).
T4 sequence (P9WHJ3 whole entry): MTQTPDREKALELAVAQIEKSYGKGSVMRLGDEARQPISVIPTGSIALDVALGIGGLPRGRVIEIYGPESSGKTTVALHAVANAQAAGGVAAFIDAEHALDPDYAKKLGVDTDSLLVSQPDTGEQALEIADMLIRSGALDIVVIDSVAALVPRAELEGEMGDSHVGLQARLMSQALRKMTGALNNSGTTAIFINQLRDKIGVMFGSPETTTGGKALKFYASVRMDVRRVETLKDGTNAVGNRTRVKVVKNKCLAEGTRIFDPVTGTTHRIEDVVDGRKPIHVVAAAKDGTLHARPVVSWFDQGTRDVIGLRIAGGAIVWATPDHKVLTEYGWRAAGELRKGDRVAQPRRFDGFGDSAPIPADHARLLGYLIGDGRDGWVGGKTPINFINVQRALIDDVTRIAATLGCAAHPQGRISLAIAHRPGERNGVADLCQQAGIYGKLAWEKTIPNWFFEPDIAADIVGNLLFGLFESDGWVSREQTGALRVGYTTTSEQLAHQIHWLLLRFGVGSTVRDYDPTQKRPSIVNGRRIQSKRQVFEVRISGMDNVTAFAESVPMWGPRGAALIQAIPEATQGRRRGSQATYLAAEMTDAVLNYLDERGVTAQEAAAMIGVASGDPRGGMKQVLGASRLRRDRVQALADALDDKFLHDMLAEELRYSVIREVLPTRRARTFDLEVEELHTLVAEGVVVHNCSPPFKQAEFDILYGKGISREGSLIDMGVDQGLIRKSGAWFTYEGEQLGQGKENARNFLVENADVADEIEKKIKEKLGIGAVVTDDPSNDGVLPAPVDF
Kind of test: Fluorescence Cell-Free Homogeneous Dose Retest to Identify Inhibitors of RecA-Intein Splicing Activity. [Related pubchem assays (depositor defined):AID2097, AID2223, AID489010, AID492950].

Test [8] has as its target T3, Sentrin-specific protease 8. The source holds these as a separate data set.
The nature of test [9]: HEK293T cytotoxicity, dose response, cytotoxicity control for miR-122 modulator project, cell-based, activator set, cherry-pick (AID 720690).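 Note: HEK293T human cells scored for general mammalian cytotoxicity.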
The nature of test [10]: HEK293T cytotoxicity, dose response, cytotoxicity control for miR-122 modulator project, cell-based, inhibitor set, cherry-pick, set 2 (AID 720697).
The nature of test [11]: miR-122 activators in hepatoma reporter cells, dose response, cell-based, Huh7 psiCHECK-miR122, Renilla luciferase, cherry-picked (AID 651956).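 Note: huh7 hepatoma cells stably carrying a psiCHECK-2 miR-122 sensor plasmid; renilla luciferase signal reporting endogenous miR-122 activity after 48 h compound exposure.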

The structures appear in SMILES notation. Active and inactive are the calls of the source.

Tyrosine-protein phosphatase non-receptor type 11, sequence (Q06124 whole entry): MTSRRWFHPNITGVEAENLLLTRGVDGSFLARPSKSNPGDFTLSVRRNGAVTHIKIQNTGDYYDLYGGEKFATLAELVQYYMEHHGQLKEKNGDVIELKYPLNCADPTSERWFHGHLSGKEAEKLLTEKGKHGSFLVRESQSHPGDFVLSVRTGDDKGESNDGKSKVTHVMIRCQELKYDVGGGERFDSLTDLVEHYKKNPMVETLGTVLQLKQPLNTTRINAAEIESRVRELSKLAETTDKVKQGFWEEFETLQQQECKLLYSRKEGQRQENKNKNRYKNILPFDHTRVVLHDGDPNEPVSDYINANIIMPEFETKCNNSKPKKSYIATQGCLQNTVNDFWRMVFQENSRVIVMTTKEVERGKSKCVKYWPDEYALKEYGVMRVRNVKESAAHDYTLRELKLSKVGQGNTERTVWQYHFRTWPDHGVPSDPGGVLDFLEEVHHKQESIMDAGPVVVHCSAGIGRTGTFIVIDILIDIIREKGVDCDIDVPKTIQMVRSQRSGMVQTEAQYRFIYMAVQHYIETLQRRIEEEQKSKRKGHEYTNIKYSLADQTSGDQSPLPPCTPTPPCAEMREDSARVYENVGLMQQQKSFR

As to `Cc1cc(C)c(NC(S)=NCC2CCN(C(C)c3ccccc3)C2)c(C)c1` (configuration not stated), the IC50 is 0.934 µM (active) in test [1]; 0.343 µM (active) in test [2]; 6.09 µM (active) in test [3]; 48.4 µM (inactive) in test [4]; > 80 µM (inactive) in test [5].
Turning to `CC1=NN(c2cccc(Cl)c2)C(=O)C1`, the concentration at half-maximal activity (AC50) in [6] was 75.7 µM (active). Also, the values for the IC50 in test [7] and in test [8] were 8.2 µM (active) and 13.4 µM (active), respectively. Further, at Protein RecA, the EC50 was 54.5 µM (active).
For `NC(Cc1ccc(C(F)(F)F)cc1)c1csc(Nc2nncc3ccccc23)n1` (configuration not stated), the AC50 in test [9] was 8.02 µM (active); in test [10], 2.52 µM (active); in test [11], 19.4 µM (active).
